Like-named read-outs stand apart in the source and are kept apart here.
Key:
Format in all cases: cell-based
HEK293 pGL4 = assay: Firefly_pGL signal, cmpd/DMSO (pGL4 control cells); conditions: Homo sapiens
NR2F6 = biological target: T1, NR2F6 (Homo sapiens, UniProt P10588); assay: NR2F6 agonist screening, Firefly signal cmpd/DMSO
T1 construct: expressed in transfected cells; also transient transfection
T1 sequence (P10588 1-404): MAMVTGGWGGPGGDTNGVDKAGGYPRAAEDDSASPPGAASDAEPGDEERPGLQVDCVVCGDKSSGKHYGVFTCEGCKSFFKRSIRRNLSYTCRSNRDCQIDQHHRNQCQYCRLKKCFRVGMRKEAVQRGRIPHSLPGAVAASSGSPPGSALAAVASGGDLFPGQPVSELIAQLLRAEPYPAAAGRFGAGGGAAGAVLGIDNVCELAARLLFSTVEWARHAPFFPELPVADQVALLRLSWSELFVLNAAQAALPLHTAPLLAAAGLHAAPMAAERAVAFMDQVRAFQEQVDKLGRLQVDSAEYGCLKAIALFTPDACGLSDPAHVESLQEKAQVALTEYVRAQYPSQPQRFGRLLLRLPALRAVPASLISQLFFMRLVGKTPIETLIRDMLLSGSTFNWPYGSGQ

Renilla = Renilla signal in NR2F6 agonist screening, cmpd/DMSO; conditions: Renilla, F4
NR2F6 LBD = biological target: T2, NR2F6 LBD (Homo sapiens, UniProt P10588); assay: NR2F6 LBD transient transfection; conditions: LBD
T2 construct: expressed in transfected cells
T2 sequence (P10588 165-393 limits assumed): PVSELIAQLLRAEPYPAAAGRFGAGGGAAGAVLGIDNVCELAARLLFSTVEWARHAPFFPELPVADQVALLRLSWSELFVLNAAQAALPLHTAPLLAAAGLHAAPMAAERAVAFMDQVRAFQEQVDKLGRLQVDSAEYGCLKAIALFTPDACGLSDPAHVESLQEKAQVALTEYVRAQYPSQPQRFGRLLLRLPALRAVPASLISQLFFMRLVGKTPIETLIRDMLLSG
Outline: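 LBD-transfected cells treated at 40, 10, 2 and 0.5 μM (4 replicates); cytotoxicity measured in parallel, normalized to DMSO (0%) and zero signal (100%). Higher concentrations excluded where signal loss reflected toxicity.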

[1] = HEK293, 0.5 uM, pGL4, read-out: Firefly pGL4, cmpd/DMSO (mean)
[2] = HEK293, 2 uM, pGL4, read-out: Firefly pGL4, cmpd/DMSO (mean)
[3] = HEK293, 10 uM, pGL4, read-out: Firefly pGL4, cmpd/DMSO (mean)
[4] = HEK293, 40 uM, pGL4, read-out: Firefly pGL4, cmpd/DMSO (mean)
[5] = HEK293, pGL4, 1% FBS, 0.5 uM, read-out: Firefly, pGL4, 1% FBS, cmpd/DMSO (mean)
[6] = HEK293, pGL4, 1% FBS, 2 uM, read-out: Firefly, pGL4, 1% FBS, cmpd/DMSO (mean)
[7] = HEK293, pGL4, 1% FBS, 10 uM, read-out: Firefly, pGL4, 1% FBS, cmpd/DMSO (mean)
[8] = HEK293, pGL4, 1% FBS, 40 uM, read-out: Firefly, pGL4, 1% FBS, cmpd/DMSO (mean)
[9] = HEK293, pGL4, 10% FBS, 0.5 uM, read-out: Firefly, pGL4, 10% FBS, cmpd/DMSO (mean)
[10] = HEK293, pGL4, 10% FBS, 2 uM, read-out: Firefly, pGL4, 10% FBS, cmpd/DMSO (mean)
[11] = HEK293, pGL4, 10% FBS, 10 uM, read-out: Firefly, pGL4, 10% FBS, cmpd/DMSO (mean)
[12] = HEK293, pGL4, 10% FBS, 40 uM, read-out: Firefly, pGL4, 10% FBS, cmpd/DMSO (mean)
[13] = read-out: Renilla, F4, cmpd/DMSO (mean)
[14] = 1% FBS, read-out: Renilla, F4, 1% FBS, cmpd/DMSO (mean)
[15] = 10% FBS, read-out: Renilla, F4, 10% FBS, cmpd/DMSO (mean)

CCC(C)N[C@H]1CS(=O)(=O)C[C@@H]1S(=O)(=O)c1ccc(Cl)cc1 (stereo partly shown) [Compound D121]
fold induction at 0.5 µM (HEK293 pGL4; [1]): 1.4
fold induction at 2 µM (HEK293 pGL4; [2]): 1.6
fold induction at 10 µM (HEK293 pGL4; [3]): 3.9
fold induction at 40 µM (HEK293 pGL4; [4]): 0.7
fold induction at 0.5 µM (HEK293 pGL4; [5]): 1.1
fold induction at 2 µM (HEK293 pGL4; [6]): 1.1
fold induction at 10 µM (HEK293 pGL4; [7]): 3.2
fold induction at 40 µM (HEK293 pGL4; [8]): 0.8
fold induction at 0.5 µM (HEK293 pGL4; [9]): 1.1
fold induction at 2 µM (HEK293 pGL4; [10]): 1.4
fold induction at 10 µM (HEK293 pGL4; [11]): 2.4
fold induction at 40 µM (HEK293 pGL4; [12]): 1.2
Firefly F4, cmpd/DMSO (mean) (NR2F6; 0.5 uM): 0.9
Firefly F4, cmpd/DMSO (mean) (NR2F6; 2 uM): 1.9
Firefly F4, cmpd/DMSO (mean) (NR2F6; 10 uM): 4.9
Firefly F4, cmpd/DMSO (mean) (NR2F6; 40 uM): 1.9
F4, Firefly/Renilla for S/B(F4) > 3 (NR2F6; 1% FBS, 10 uM): 2.3
Firefly, F4/pGL4 for S/B(F4) > 3 (NR2F6; 1% FBS, 10 uM): 1.2
F4, Firefly/Renilla for S/B(F4) > 3 (NR2F6; 10% FBS, 10 uM): 2.4
Firefly, F4/pGL4 for S/B(F4) > 3 (NR2F6; 10% FBS, 10 uM): 1.4
F4, Firefly/Renilla for S/B(F4) > 3 (NR2F6; 10% FBS, 40 uM): 1.3
Firefly, F4/pGL4 for S/B(F4) > 3 (NR2F6; 10% FBS, 40 uM): 2.9
Firefly, F4, 1% FBS, cmpd/DMSO (mean) (NR2F6; 1% FBS, 0.5 uM): 1.5
Firefly, F4, 1% FBS, cmpd/DMSO (mean) (NR2F6; 1% FBS, 2 uM): 1.2
Firefly, F4, 1% FBS, cmpd/DMSO (mean) (NR2F6; 1% FBS, 10 uM): 3.9
Firefly, F4, 1% FBS, cmpd/DMSO (mean) (NR2F6; 1% FBS, 40 uM): 0.1
Firefly, F4, 10% FBS, cmpd/DMSO (mean) (NR2F6; 10% FBS, 0.5 uM): 1.2
Firefly, F4, 10% FBS, cmpd/DMSO (mean) (NR2F6; 10% FBS, 2 uM): 1.4
Firefly, F4, 10% FBS, cmpd/DMSO (mean) (NR2F6; 10% FBS, 10 uM): 3.3
Firefly, F4, 10% FBS, cmpd/DMSO (mean) (NR2F6; 10% FBS, 40 uM): 3.4
fold induction at 0.5 µM (Renilla; [13]): 1.2
fold induction at 2 µM (Renilla; [13]): 1.1
fold induction at 10 µM (Renilla; [13]): 1.5
fold induction at 40 µM (Renilla; [13]): 1.7
fold induction at 0.5 µM (Renilla; [14]): 1.1
fold induction at 2 µM (Renilla; [14]): 1.4
fold induction at 10 µM (Renilla; [14]): 1.7
fold induction at 40 µM (Renilla; [14]): 1.3
fold induction at 0.5 µM (Renilla; [15]): 1
fold induction at 2 µM (Renilla; [15]): 1.1
fold induction at 10 µM (Renilla; [15]): 1.4
fold induction at 40 µM (Renilla; [15]): 2.6
Firefly LBD, cmpd/DMSO (mean) (NR2F6 LBD; 0.5 uM): 1.0
Firefly LBD, cmpd/DMSO (mean) (NR2F6 LBD; 2 uM): 1.5
Firefly LBD, cmpd/DMSO (mean) (NR2F6 LBD; 10 uM): 3.6
Firefly LBD, cmpd/DMSO (mean) (NR2F6 LBD; 40 uM): 0.7

O=S1(=O)C[C@H](N2CCCCC2)[C@@H](S(=O)(=O)c2ccc(Cl)cc2)C1 [Compound D123]
fold induction at 0.5 µM (HEK293 pGL4; [1]): 1.2
fold induction at 2 µM (HEK293 pGL4; [2]): 1.7
fold induction at 10 µM (HEK293 pGL4; [3]): 3.4
fold induction at 40 µM (HEK293 pGL4; [4]): 0.6
fold induction at 0.5 µM (HEK293 pGL4; [5]): 1.1
fold induction at 2 µM (HEK293 pGL4; [6]): 1.8
fold induction at 10 µM (HEK293 pGL4; [7]): 2.7
fold induction at 40 µM (HEK293 pGL4; [8]): 0.8
fold induction at 0.5 µM (HEK293 pGL4; [9]): 1.2
fold induction at 2 µM (HEK293 pGL4; [10]): 1.6
fold induction at 10 µM (HEK293 pGL4; [11]): 3
fold induction at 40 µM (HEK293 pGL4; [12]): 0.8
Firefly F4, cmpd/DMSO (mean) (NR2F6; 0.5 uM): 1.8
Firefly F4, cmpd/DMSO (mean) (NR2F6; 2 uM): 2.5
Firefly F4, cmpd/DMSO (mean) (NR2F6; 10 uM): 7.1
Firefly F4, cmpd/DMSO (mean) (NR2F6; 40 uM): 0.7
F4, Firefly/Renilla for S/B(F4) > 3 (NR2F6; 1% FBS, 10 uM): 2.7
Firefly, F4/pGL4 for S/B(F4) > 3 (NR2F6; 1% FBS, 10 uM): 1.6
F4, Firefly/Renilla for S/B(F4) > 3 (NR2F6; 10% FBS, 10 uM): 4.0
Firefly, F4/pGL4 for S/B(F4) > 3 (NR2F6; 10% FBS, 10 uM): 2.5
Firefly, F4, 1% FBS, cmpd/DMSO (mean) (NR2F6; 1% FBS, 0.5 uM): 1.3
Firefly, F4, 1% FBS, cmpd/DMSO (mean) (NR2F6; 1% FBS, 2 uM): 2.1
Firefly, F4, 1% FBS, cmpd/DMSO (mean) (NR2F6; 1% FBS, 10 uM): 4.4
Firefly, F4, 1% FBS, cmpd/DMSO (mean) (NR2F6; 1% FBS, 40 uM): 0.2
Firefly, F4, 10% FBS, cmpd/DMSO (mean) (NR2F6; 10% FBS, 0.5 uM): 1.1
Firefly, F4, 10% FBS, cmpd/DMSO (mean) (NR2F6; 10% FBS, 2 uM): 2.0
Firefly, F4, 10% FBS, cmpd/DMSO (mean) (NR2F6; 10% FBS, 10 uM): 7.5
Firefly, F4, 10% FBS, cmpd/DMSO (mean) (NR2F6; 10% FBS, 40 uM): 0.8
Activity, cmpd/DMSO (NR2F6; Table 31): 6.1
fold induction at 0.5 µM (Renilla; [13]): 1.1
fold induction at 2 µM (Renilla; [13]): 1.4
fold induction at 10 µM (Renilla; [13]): 1.9
fold induction at 40 µM (Renilla; [13]): 0.3
fold induction at 0.5 µM (Renilla; [14]): 1.1
fold induction at 2 µM (Renilla; [14]): 1.4
fold induction at 10 µM (Renilla; [14]): 1.6
fold induction at 40 µM (Renilla; [14]): 0.1
fold induction at 0.5 µM (Renilla; [15]): 0.9
fold induction at 2 µM (Renilla; [15]): 1.1
fold induction at 10 µM (Renilla; [15]): 1.9
fold induction at 40 µM (Renilla; [15]): 0.2
Firefly LBD, cmpd/DMSO (mean) (NR2F6 LBD; 0.5 uM): 1.0
Firefly LBD, cmpd/DMSO (mean) (NR2F6 LBD; 2 uM): 1.9
Firefly LBD, cmpd/DMSO (mean) (NR2F6 LBD; 10 uM): 4.9
Firefly LBD, cmpd/DMSO (mean) (NR2F6 LBD; 40 uM): 0.4
